# According to US20210349099A1, “CANCER BIOMARKERS AND METHODS OF USE THEREOF” (X4 Pharmaceuticals, Inc., priority 2017, published 2021):
# Tests used:
# melanoma biopsy samples = assay: VISTA panel staining of melanoma biopsies (CD163, CD206, VISTA, COX-2, CD3, B7H3); type: in vivo, human
# Text: Biopsy samples were obtained at baseline (top row) and at the end of […]-001 monotherapy (bottom row). […] The right column contains higher magnification views of the boxed regions in the center panel.
# [1] = tested on: solid tumors, e.g. advanced or metastatic melanoma; assay: Biomarker findings in tumors; type: in vivo
# Text: Granzyme B is associated with cell death/apoptosis mediated by cytotoxic T lymphocytes (CTLs), natural killer (NK) cells, and cytotoxic T cells. Accordingly, in some embodiments, the biomarker is an observed increase in granzyme B expression in a tumor relative to a control. In some embodiments, the cancer is a solid tumor such as advanced or metastatic melanoma. […] Accordingly, in some embodiments, the biomarker is an observed increase in CD8^+ T cells and/or CD4^+ T cells in a tumor relative to a control. In other embodiments, the biomarker is an increase in the ratio of CD8^+ T cells to Treg cells. In some embodiments, the increase is observed by immunohistochemistry or expression levels of one or both of CD8A and CD8B. In some embodiments, an increase in CD8^+ T cells and/or CD4^+ T cells or CD8^+ T cells/Treg ratio in a tumor sample from a patient who has undergone treatment with […]-001 or X4-136 correlates with an increased likelihood that the patient will benefit from continued treatment with […]-001 alone or in combination with an immunotherapeutic agent, e.g., a checkpoint inhibitor such as a PD-1 antagonist. In some embodiments, the PD-1 antagonist is selected from nivolumab and pembrolizumab, or a biosimilar or variant of such PD-1 antagonists. In some embodiments, the checkpoint inhibitor is nivolumab. In some embodiments, the checkpoint inhibitor is a nivolumab biosimilar or variant. In some embodiments, the checkpoint inhibitor is pembrolizumab. In some embodiments, the checkpoint inhibitor is a pembrolizumab biosimilar or variant. In some embodiments, the tumor is a solid tumor such as advanced or metastatic melanoma. […] In some embodiments, the biomarker is IDO1. In some embodiments, the biomarker is CXCL10. In some embodiments, the biomarker is CXCL9. In some embodiments, the biomarker is HLA-DRA. In some embodiments, the biomarker is STAT1. In some embodiments, the biomarker is IFN-γ. In some embodiments, the biomarker is two or more of IDOL, CXCL10, CXCL9, HLA-DRA, STAT1 and IFN-γ. In some embodiments, the biomarker is three or more of IDO1, CXCL10, CXCL9, HLA-DRA, STAT1 and IFN-γ. In some embodiments, the biomarker is four or more of IDOL, CXCL10, CXCL9, HLA-DRA, STAT1 and IFN-γ. In some embodiments, the biomarker is five or more of IDOL, CXCL10, CXCL9, HLA-DRA, STAT1 and IFN-γ. In some embodiments, the biomarker is all of IDOL, CXCL10, CXCL9, HLA-DRA, STAT1 and IFN-γ. In some embodiments, the biomarker is an increase of all of IDO1, CXCL10, CXCL9, HLA-DRA, STAT1 and IFN-γ. In some embodiments, an increase in one, two, three, four, five, or all of IDOL, CXCL10, CXCL9, HLA-DRA, STAT1 and IFN-γ in a tumor sample from a patient who has undergone treatment with […]-001 correlates with an increased likelihood that the patient will benefit from continued treatment with […]-001 alone or in combination with an immunotherapeutic agent, e.g., a checkpoint inhibitor such as a PD-1 antagonist. In some embodiments, the PD-1 antagonist is selected from nivolumab and pembrolizumab, or a biosimilar or variant of such PD-1 antagonists. In some embodiments, the checkpoint inhibitor is nivolumab. In some embodiments, the checkpoint inhibitor is a nivolumab biosimilar or variant. In some embodiments, the checkpoint inhibitor is pembrolizumab. In some embodiments, the checkpoint inhibitor is a pembrolizumab biosimilar or variant. In some embodiments, the tumor is a solid tumor such as advanced or metastatic melanoma. In some embodiments, the biomarker or the use thereof is one of those described in Ayers et al., Journal of Clinical Investigation 2017, 127(8), 2930-2940 [29] (“Ayers et al. (2017)”) or WO 2016/094377, each of which is hereby incorporated by reference. […] Accordingly, in some embodiments, the biomarker is maintenance or decrease of Treg levels in a tumor relative to a control. In some embodiments, the biomarker is the level of FoxP3 expression, which serves as a means to determine the Treg level. […]
# Solubility of X4P-001 = type: physicochemical
# [2] = tested on: B16-OVA tumor microenvironment; assay: Flow cytometry of immune cell populations in B16-OVA tumor tissue; type: in vivo, C57BL/6 mice
# Method: Single cell suspensions were prepared from tumor tissues by treating with collagenase and analyzing for various immune cell populations using flow cytometry. Cell surface markers included CD3, CD8, Perforin, CD15CD11b (MDSC), and FoxP3 (Treg). […] The enhancement was even greater for combination therapy with anti-PD-1.
# [3] = end of X4P-001 monotherapy vs baseline
# [4] = solid tumors, e.g. advanced or metastatic melanoma
compound,measurement,setting,value
NCCCCN(Cc1nc2ccccc2[nH]1)[C@H]1CCCc2cccnc21 [X4P-001],COX-2/mm^2,"melanoma biopsy samples; Week 4, ROI Non-Tumor, Day 1 2.07",1.22 /mm^2
same,CD206/mm^2,"melanoma biopsy samples; Week 4, ROI Non-Tumor, Day 1 252.20",199.30 /mm^2
same,CD3/mm^2,"melanoma biopsy samples; Week 4, ROI Non-Tumor, Day 1 400.31",494.97 /mm^2
same,VISTA/mm^2,"melanoma biopsy samples; Week 4, ROI Non-Tumor, Day 1 410.11",144.72 /mm^2
same,CD163/mm^2,"melanoma biopsy samples; Week 4, ROI Non-Tumor, Day 1 514.86",467.25 /mm^2
same,B7H3/mm^2,"melanoma biopsy samples; Week 4, ROI Non-Tumor, Day 1 615.63",980.49 /mm^2
same,Cells/mm^2,"melanoma biopsy samples; Week 4, ROI Non-Tumor, Day 1 2057.63",2217.73 /mm^2
same,COX-2/mm^2,"melanoma biopsy samples; Week 4, ROI Tumor, Day 1 3.40",2.98 /mm^2
same,CD3/mm^2,"melanoma biopsy samples; Week 4, ROI Tumor, Day 1 239.91",1050.68 /mm^2
same,CD206/mm^2,"melanoma biopsy samples; Week 4, ROI Tumor, Day 1 264.79",161.25 /mm^2
same,CD163/mm^2,"melanoma biopsy samples; Week 4, ROI Tumor, Day 1 426.51",661.21 /mm^2
same,VISTA/mm^2,"melanoma biopsy samples; Week 4, ROI Tumor, Day 1 2640.08",852.86 /mm^2
same,B7H3/mm^2,"melanoma biopsy samples; Week 4, ROI Tumor, Day 1 4826.36",3952.27 /mm^2
same,Cells/mm^2,"melanoma biopsy samples; Week 4, ROI Tumor, Day 1 5758.23",5297.64 /mm^2
same,COX-2/mm^2,"melanoma biopsy samples; Week 4, ROI Whole Tissue, Day 1 2.87",1.97 /mm^2
same,CD206/mm^2,"melanoma biopsy samples; Week 4, ROI Whole Tissue, Day 1 259.38",182.26 /mm^2
same,CD3/mm^2,"melanoma biopsy samples; Week 4, ROI Whole Tissue, Day 1 308.53",738.82 /mm^2
same,CD163/mm^2,"melanoma biopsy samples; Week 4, ROI Whole Tissue, Day 1 464.86",552.27 /mm^2
same,VISTA/mm^2,"melanoma biopsy samples; Week 4, ROI Whole Tissue, Day 1 1673.17",457.53 /mm^2
same,B7H3/mm^2,"melanoma biopsy samples; Week 4, ROI Whole Tissue, Day 1 2998.14",2288.84 /mm^2
same,Cells/mm^2,"melanoma biopsy samples; Week 4, ROI Whole Tissue, Day 1 4149.31",3572.93 /mm^2
same,expression of VISTA,melanoma biopsy samples; [3],decreased expression
same,numbers of CD3+ cells within tumor borders,melanoma biopsy samples; [3],increased numbers
same,CTL signature gene expression in tumor samples or the tumor microenvironment,[1]; in vivo,increase
same,IFN-γ gene signature (panel of IFN-γ related genes),[1]; in vivo,increase
same,PD-L1 expression in tumor samples and the tumor microenvironment,[1]; in vivo,increase
same,granzyme B (GZMB) expression in cancers,[1]; [4],increases
same,levels of Treg cells,[1]; [4],without significantly increasing
same,levels of macrophages in the tumor,[1]; [4],without significantly modulating
same,observed numbers of CD8+ T cells and/or CD4+ T cells in cancers,[1]; [4],increases
same,levels of the VISTA panel of biomarkers,[1]; tumor samples and the tumor microenvironment,modulate
same,solubility,"Solubility of X4P-001; aqueous buffer, pH range 3.0 to 8.0 (freely soluble)",> 100 mg/mL
same,solubility in water,Solubility of X4P-001; water,only slightly soluble
same,suppressor cell counts (Tregs and MDSC),[2],substantially decreased
